Experimental data as given in patent US11717557B2, “Use of PRG4 as an anti-inflammatory agent” (Lubris LLC, priority 2015, dated 2023).
One block for each compound: values may come before it. Residues, ends and D or L forms follow the SMILES beside them. *: point of attachment. Cbz = O=C(OCc1ccccc1)*

Tests used:
CD44 IgG1Fc [1] = target: T1, CD44 IgG1Fc (Homo sapiens, UniProt P16070); test: Competition between rhPRG4 and HA on binding to CD44, ELISA; details: rhPRG4 5 μg/mL
T1 construct: purchased R & D systems
Experimental: To evaluate the competition between rhPRG4 and either HMW HA or MMW HA on binding to CD44, microtiter plates were coated with either CD44 IgG1Fc or IgG1Fc at 1 μg/mL (100 μL per well) overnight at 4° C. Subsequently, wells were washed with PBS+0.1% tween 20 and wells were blocked using 2% BSA (300 μL per well) for at least 2 hours at room temperature. […] Following washing with PBS+0.1% tween 20, lubricin-specific monoclonal antibody (Mab 9G3) was added at 1:1,000 (100 μL per well) and incubated for 60 min at room temp. Following washing with PBS+0.1% tween 20, goat anti-mouse IgG-HRP (Thermo Scientific) at 1:1,000 dilution was added (100 μL per well) and incubated for 60 min at room temp. The assay was developed as described above. The absorbance values in the IgG1Fc wells were subtracted from the absorbance values in the CD44-IgG1Fc wells and the corrected absorbance values in the rhPRG4+HA groups were normalized to the absorbance values of the rhPRG4 group and data was expressed as percentage binding to CD44. The data represents an average of 4 independent assays, each with triplicate wells per group.

CD44 IgG1Fc [2] = target: T1, CD44 IgG1Fc; test: Direct ELISA: binding of coated macromolecules to CD44-IgG1Fc versus IgG1Fc; details: wells coated at 400 μg/mL; CD44-IgG1Fc or IgG1Fc 1 μg/mL; p<0.001 where significant
Experimental: High-binding microtiter plates (Corning, Sigma Aldrich, USA) were coated with rhPRG4 (Mr≅240 KDa), high molecular weight HA (HMW HA; Mr≈1,500 KDa) (R & D System, USA), medium molecular weight HA (MMW HA; Mr≈300 KDa) (R & D System) and vitronectin (Mr≅75 KDa) (Sigma Aldrich) at 400 μg/mL in PBS buffer (100 μL per well) overnight at 4° C. rhPRG4 is a full-length product produced by CHO-M cells (Lubris, Framingham, Mass., USA). Following washing with PBS+0.1% Tween 20, wells were blocked with 2% bovine serum albumin (BSA; 300 μL per well) for at least 2 hours at room temperature. CD44-IgG1Fc (R & D systems) or IgG1Fc (R & D systems), each at 1 μg/mL (100 μl per well), were added to the plate and incubated for 60 min at room temperature. Following washing with PBS+0.1% tween 20, anti-IgG1Fc-HRP (Sigma Aldrich) was added at 1:10,000 dilution (100 μL per well) and incubated for 60 min at room temp. Following washing with PBS+0.1% tween 20, the assay was developed using 1-step Turbo TMB ELISA reagent (ThermoScientific, USA) and absorbance was measured at 450 nm. The data represents an average of 4 independent assays, each with triplicate wells per group.

[3] = tested on: Rheumatoid arthritis fibroblast-like synoviocytes (RA-FLS); test: Cytokine-induced RA-FLS proliferation (MTS); format: cell-based; details: 48 hours, p<0.05
Experimental: Rheumatoid arthritis fibroblast-like synoviocytes (RA-FLS; Cell Applications, USA) between 3rd and 6th passages were used to conduct these experiments. In sterile 96 well plates, RA-FLS (5,000 cells per well in 80 μL) were cultured in DMEM supplemented with 1% FBS and 1 mM pyruvate and stimulated with recombinant human interleukin-1 beta (IL-1β; R & D systems) at 20 ng/mL or tumor necrosis factor alpha (TNF-α; R & D systems) at 5 ng/mL for 48 hours at 37° C. in the absence or presence of rhPRG4 or HMW HA at a final concentration of 20, 40 or 80 μg/mL. The total volume in each well was 200 μL. Cell proliferation, an indication of inflammation, was determined using the CellTiter 96 AQueous one solution cell proliferation assay (MTS; Promega, USA) and the 490 nm absorbance was determined. Data is presented as the number of fold change in 490 nm absorbance compared to untreated control RA-FLS. The data represents the average of 3 independent experiments with at least triplicate wells per treatment. To evaluate the contribution of CD44 to the effect of rhPRG4 or HMW HA, RA-FLS were stimulated with IL-1β or TNF-α as described above. Treatment with rhPRG4 or HMW HA was conducted to a final concentration of 80 μg/mL in the absence or presence of IM7 (Abcam, USA), a CD44 neutralizing antibody that recognizes a conserved epitope across all CD44 isoforms (Samson et al., Exp Eye Res, 2014; 127C:14-19), at a final dilution of 1:200. The total volume in each well was 200 μl. Cell proliferation across the experimental groups was determined as described above and data is presented as the number of fold change in 490 nm absorbance compared to untreated control RA-FLS. The data represents the average of 3 independent experiments with at least triplicate wells per treatment.

[4] = tested on: NFκB nuclear translocation in RA-FLS; test: NFκB nuclear translocation after TNF-α stimulation of RA-FLS; format: cell-based; details: TNF-α 5 ng/mL; rhPRG4 200 μg/mL or MG 132 3 μM; 24 hours; p<0.001
Experimental: RA-FLS (400,000 cells/well) were cultured and stimulated with TNF-α (5 ng/mL) and treated with rhPRG4 (200 μg/mL) or a commercially available NFκB translocation inhibitor MG 132 (3 μM; Tocris Bioscience) for 24 hours in serum free media. Cells were harvested and nuclear extraction was performed using a commercially available kit (Thermo scientific). Total protein was measured using a micro bicinchonic acid (BCA) kit (Thermo scientific) and 3 μg of nuclear extract of each experimental group were used. The p50 subunit of NFκB was detected in the nuclear extract using a commercially available NFκB DNA binding assay kit (Abcam). Data is presented as the number of fold change in NFκB nuclear levels compared to untreated control. To evaluate whether inhibition of NFκB translocation by rhPRG4 is CD44 dependent, the above experiment was repeated in the presence or absence of IM7 CD44 antibody (1:1,000 dilution). Data represents the average of 3 independent experiments with at least triplicate wells per treatment.

[5] = tested on: citrated whole human blood; test: LPS challenge, inflammatory cytokines in whole blood (Biochip Array); format: cell-based; details: LPS 10 μg/mL, versus saline
Description: Lipopolysaccharides (LPS) are found in the outer membrane of Gram-negative bacteria and elicit strong immune inflammatory responses in animals. The effect of LPS challenge on the production of inflammatory cytokines was studied in citrated whole human blood using Biochip Array technology to profile the generation of various cytokines and the modulation of their production. The generation of IL2, IL4, IL6, IL8, IL10, VEGF, IFNg, TNFa, IL1a, IL1b, MCP1 and EGF was studied in citrated whole blood samples supplemented with saline (1-10 ratio) and LPS at 10 μg/mL in samples incubated for 60 minutes at 37° C. These mixtures were centrifuged and the supernatant plasma was analyzed for the […] inflammatory biomarkers using a high sensitivity cytokine array on a Randox Invesitigator Biochip reader. These studies were run in duplicate and tabulated in the form of a table and a figure. As shown in FIGS. 8A-B, supplementation of lipopolysaccharide in a 1:10 dilution in whole blood results in an increase in production of the inflammatory cytokines IL-4, IL-6, IL-8, IL-10, VEGF, TNF-α, IL1-β, and MCP-1 under the specified conditions. No changes in IL2, IFNg, and IL1b were noted.

CD44 = target: T2, CD44 (Homo sapiens, UniProt P16070); test: CD44 binding of sialidase-A / O-glycosidase digested rhPRG4, direct ELISA; details: coating 30 μg/mL; digestion 16 hours at 37° C.
T2 construct: purchased R & D systems
Experimental: rhPRG4 was digested using sialidase A (Prozyme, USA), O-glycosidase (New England Biolabs, USA) or a combination of sialidase A and O-glycosidase for 16 hours at 37° C. In the sialidase A digestion, 12 μL of the enzyme (1 U/200 μL) was added to rhPRG4 in a total reaction volume of 180 μL and a rhPRG4 final concentration of 300 μg/mL. In the O-glycosidase digestion, 4.8 μL of the enzyme (40 million units/mL) was added to rhPRG4 in a total reaction volume of 180 μL and a rhPRG4 final concentration of 300 μg/mL under non-denaturing conditions. In the sialidase-A and O-glycosidase digestion, the enzymes were used in volumes identical to the ones stated above and incubated with rhPRG4 in a total reaction volume and final rhPRG4 concentration as stated above. The effect of sialidase-A and O-glycosidase digestions on rhPRG4 apparent molecular weight was determined by SDS-PAGE using 4-12% Bis-Tris gel (NuPage, life technologies, USA). A total of 20 μL of rhPRG4 or enzyme-digested rhPRG4 was run under reducing conditions ([…] for 60 min) followed by staining using Gelcode Blue Stain (Thermo Scientific, USA). Binding of enzymatically digested rhPRG4 to CD44 was compared to undigested rhPRG4 using the direct ELISA approach described above and using an rhPRG4 coating concentration of 30 μg/mL. Data represents the average of 4 independent experiments, each with triplicate wells per group.

Compound: CC(C)C[C@@H](C=O)NC(=O)[C@H](CC(C)C)NC(=O)[C@H](CC(C)C)NC(=O)OCc1ccccc1 [MG132, reference compound] (Cbz-Leu-Leu-Leu-aldehyde)
NFκB nuclear translocation compared to TNF-α-treated RA-FLS [4]: significantly reduced

Compound: lipopolysaccharide
production of IL-4, IL-6, IL-8, IL-10, VEGF, TNF-α, IL1-β and MCP-1 ([5]; 1:10 dilution in whole blood, 60 minutes at 37° C.): increase
IL2, IFNg and IL1b ([5]; 60 minutes at 37° C.): No changes
percent changes in IL6, IL8, VEGF and TNFa ([5]; 60 minutes): pronounced increase

Compound: sialidase-A and O-glycosidase-digested rhPRG4: rhPRG4 digested using a combination of sialidase A and O-glycosidase
percentage binding to CD44 compared to untreated control (undigested rhPRG4) (CD44): significantly higher

Compound: sialidase-A digested rhPRG4: rhPRG4 digested using sialidase A for 16 hours at 37° C.
percentage binding to CD44 compared to untreated control (undigested rhPRG4) (CD44): significant increase

The next lines start with results.

reduction of rhPRG4 binding to CD44 by an excess of HA (CD44 IgG1Fc [1]): approximately 50%
effect of HA on rhPRG4's binding to CD44 (CD44 IgG1Fc [1]; HA at 0.05, 0.25, 1, p<0.05): significantly reduced
450 nm absorbance in the CD44-IgG1Fc group versus the IgG1Fc group (CD44 IgG1Fc [2]): significantly higher
Compound: hyaluronic acid [HMW HA]
RA-FLS proliferation with IL-1β stimulation ([3]; IL-1β 20 ng/mL, treatment 40 and 80 μg/mL): significantly suppressed
RA-FLS proliferation with TNF-α stimulation ([3]; TNF-α 5 ng/mL, treatment 20, 40 and 80 μg/mL): did not result in suppressing

percentage binding to CD44 compared to untreated control (undigested rhPRG4) (CD44): significant increase
Compound: O-glycosidase digested rhPRG4: rhPRG4 digested using O-glycosidase for 16 hours at 37° C.

450 nm absorbance in the CD44-IgG1Fc group versus the IgG1Fc group (CD44 IgG1Fc [2]): no significant difference
Compound: vitronectin: vitronectin, Mr≅75 KDa (Sigma Aldrich), shares sequence homology with lubricin
